What all share (assay type): in vitro ADME
In one assay the target is T1, CYP2D6 (Homo sapiens, UniProt P10635).
T1 construct: the incubation mixtures containing pooled HLMs (0.25 mg/mL, H2630, Xenotech); tissue Xenotech H2630; host or cells: pooled human liver microsomes
Put plainly: CYP2D6 inhibition (dextromethorphan O-demethylase) in human liver microsomes, substrate cocktail LC-MS/MS. The method, then:
(§1) The inhibitory effects of two selaginellins on the metabolism of ten P450 probe substrates were evaluated using previously reported method with minor modification. Phenacetin O-deethylase, coumarin 7-hydroxylase, bupropion 4-hydroxylase, amodiaquine N-deethylase, tolbutamide 4-hydroxylase, omeprazole 5-hydroxylase, dextromethorphan O-demethylase, chlorzoxazone 6-hydroxylase and midazolam 1′-hydroxylase activities were determined as probe activities for CYP1A2, CYP2A6, CYP2B6, CYP2C8, CYP2C9, CYP2C19, CYP2D6, CYP2E1 and […], respectively, using substrate cocktail incubation and tandem mass spectrometry (Table 2). Selaginellins were dissolved in methanol. The final concentrations of organic solvent (methanol) for the cocktail incubation conditions in all experiments were 1.0% (v/v). In brief, the incubation mixtures containing pooled HLMs (0.25 mg/mL, H2630, Xenotech), P450 probe substrate cocktail, and inhibitor (0, 0.5, 2, 5, 20 and 50 μM) were preincubated at 37 °C for 5 min. […] After mixing and centrifugation, aliquots were analyzed by liquid chromatography-tandem mass spectrometry (LC-MS/MS) as previous described. The CYP2J2 inhibitory effects of two selaginellins were also evaluated in pooled HLMs using previously reported method. […]
A general note: Liver microsomes are a subcellular fraction often used to study metabolism.

For the next assay, the target named is T2, CYP1A2 (Homo sapiens, UniProt P05177).
T2 construct: the incubation mixtures containing pooled HLMs (0.25 mg/mL, H2630, Xenotech); tissue Xenotech H2630; host or cells: pooled human liver microsomes
T2 sequence (P05177 1-516): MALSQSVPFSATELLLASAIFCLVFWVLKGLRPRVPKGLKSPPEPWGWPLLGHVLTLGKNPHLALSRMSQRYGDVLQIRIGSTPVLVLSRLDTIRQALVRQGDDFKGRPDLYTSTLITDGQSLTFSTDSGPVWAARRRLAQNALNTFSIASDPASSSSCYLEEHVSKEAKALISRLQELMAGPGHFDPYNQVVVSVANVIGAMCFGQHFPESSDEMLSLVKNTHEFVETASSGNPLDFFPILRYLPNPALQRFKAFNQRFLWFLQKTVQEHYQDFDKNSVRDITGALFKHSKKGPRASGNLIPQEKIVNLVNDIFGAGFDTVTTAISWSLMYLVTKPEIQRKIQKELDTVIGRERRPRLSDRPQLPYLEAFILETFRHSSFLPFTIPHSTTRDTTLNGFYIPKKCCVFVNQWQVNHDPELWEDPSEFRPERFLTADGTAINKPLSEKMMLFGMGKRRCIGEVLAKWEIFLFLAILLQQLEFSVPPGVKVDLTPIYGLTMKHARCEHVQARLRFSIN
The assay is described as follows: CYP1A2 inhibition (phenacetin O-deethylase) in human liver microsomes, substrate cocktail LC-MS/MS. As to the method:
as §1

Another assay concerns the target T3, UGT1A1 (Homo sapiens, UniProt P22309).
T3 construct: from tissue; host or cells: human liver microsomes
T3 sequence (P22309 26-533): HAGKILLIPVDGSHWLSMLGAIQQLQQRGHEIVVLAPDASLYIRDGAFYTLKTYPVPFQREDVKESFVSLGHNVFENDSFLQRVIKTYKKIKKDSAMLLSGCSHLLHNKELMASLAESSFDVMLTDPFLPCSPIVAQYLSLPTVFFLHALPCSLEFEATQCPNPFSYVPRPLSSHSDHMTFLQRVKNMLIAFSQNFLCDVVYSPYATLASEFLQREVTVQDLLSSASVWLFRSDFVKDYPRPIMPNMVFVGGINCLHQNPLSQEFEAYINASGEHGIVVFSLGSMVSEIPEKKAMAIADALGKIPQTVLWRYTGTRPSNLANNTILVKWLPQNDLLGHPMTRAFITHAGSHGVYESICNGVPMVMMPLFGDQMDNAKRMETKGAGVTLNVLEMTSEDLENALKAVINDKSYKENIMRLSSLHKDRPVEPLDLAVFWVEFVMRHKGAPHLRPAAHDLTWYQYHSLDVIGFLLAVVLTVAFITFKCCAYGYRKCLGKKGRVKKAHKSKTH
Put plainly: UGT1A1 inhibition (SN-38 glucuronidation) in human liver microsomes, cocktail LC-MS/MS. The conditions noted are these: IC50 UGT isoform 1A1, HLMs 0.25 mg/mL with alamethicin, SN-38 0.5 μM. The method, then: The inhibitory effects of two selaginellins on the metabolism of six UGT probe substrates were evaluated using previously reported method with minor modification. In brief, HLMs (0.25 mg/mL) were activated by incubation in the presence of alamethicin (25 μg/mL) for 15 min on ice. After the addition of UGT isoform-selective substrates and selaginellins (0, 0.5, 2, 5, 20 and 50 μM) the final concentrations of organic solvent (methanol) for the cocktail incubation conditions were 1.0% (v/v). The incubation reaction mixtures were pre-incubated for 5 min. The reaction was initiated by the addition of 5 mM UDPGA and further incubated for 60 min. All reactions were terminated by adding ice-cold acetonitrile containing estrone glucuronide (IS). After mixing and centrifugation, aliquots were injected into a LC-MS/MS as described previously (Table 2). All microsomal incubations were performed in triplicate.
The IC50 values (concentration of the inhibitor causing 50% inhibition of the original enzyme activity) were calculated using WinNonlin software (Pharsight, Mountain View, CA, USA): percentage of control activity = 100 × [1 − (I/(I + IC50))], where I is the inhibitor concentration, and IC50 is the inflection point on the curve.

pIC50: −log10 of the molar value. Like-named read-outs stand apart in the source and are kept apart here.

T1 sequence (P10635 whole entry): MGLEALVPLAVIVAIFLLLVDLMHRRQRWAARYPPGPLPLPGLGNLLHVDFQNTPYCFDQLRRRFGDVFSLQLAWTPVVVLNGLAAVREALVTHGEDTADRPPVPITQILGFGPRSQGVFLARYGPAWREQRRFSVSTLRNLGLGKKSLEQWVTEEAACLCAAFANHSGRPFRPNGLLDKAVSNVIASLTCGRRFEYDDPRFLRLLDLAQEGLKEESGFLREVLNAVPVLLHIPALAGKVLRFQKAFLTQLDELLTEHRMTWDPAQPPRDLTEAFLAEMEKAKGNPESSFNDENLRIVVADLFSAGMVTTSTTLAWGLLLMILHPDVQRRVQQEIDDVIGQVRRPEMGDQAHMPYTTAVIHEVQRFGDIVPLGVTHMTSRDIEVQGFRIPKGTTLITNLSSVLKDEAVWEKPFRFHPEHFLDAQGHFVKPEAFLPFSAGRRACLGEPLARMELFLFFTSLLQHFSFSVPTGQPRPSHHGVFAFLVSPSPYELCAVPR

For `COc1ccc(C(=C2C=CC(=O)C=C2)c2c(-c3ccc(O)cc3)ccc(CO)c2C#Cc2ccc(O)cc2)cc1` [Selaginellin M], the negative logarithm of the IC50 (pIC50) against CYP2D6 was 5.17; on CYP1A2 (pooled HLMs 0.25 mg/mL, phenacetin 100 μM, read-out: IC50 P450 isoform 1A2), below 4.30; against UGT1A1, 5.89.

With `O=C1C=CC(=C(c2ccc(O)cc2)c2c(-c3ccc(O)cc3)ccc(CO)c2C#Cc2ccc(O)cc2)C=C1` [Selaginellin], the values for the negative logarithm of the IC50 (pIC50) at CYP2D6, against CYP1A2 and at UGT1A1 were 5.24, 4.44 and 6.00, respectively.

As a reminder, the pIC50 is the IC50 on a negative log10 scale, so that one unit is a factor of ten.

The record behind these values is paper PMC6151550, “Inhibitory Effect of Selaginellins from Selaginella tamariscina (Beauv.) Spring against Cytochrome P450 and Uridine 5′-Diphosphoglucuronosyltransferase Isoforms on Human Liver Microsomes” (Molecules : A Journal of Synthetic Chemistry and Natural …, 2017).
